# Results: patent US5912183A, “Peptide inhibitors of mitogenesis and motogenesis” (Pharmacia & Upjohn S.p.A., priority 1993, dated 1999)
# Residues, ends and D or L forms follow the SMILES beside them.
# What was measured:
# [1] = target: T1, binding of p85 to HGF/SF receptor (Bos taurus, UniProt P23727); test: Competition of phosphopeptides with p85 for association with immobilized recombinant HGF/SF receptor (in vitro kinase assay readout); design: species or system human; conditions: phosphopeptide 10 μM; p85 from Sf9 lysates; FIG. 1
# T1 construct: made in house; host or cells: Sf9 insect cells (baculovirus), for both p85 and the receptor
# Protocol: FIG. 1. Inhibition of binding of p85 to HGF/SF receptor by tyrosine-phosphorylated peptides. Recombinant HGF/SF receptor was purified by immunoprecipitation from baculovirus-infected Sf9 cells using a rabbit polyclonal antiserum and phosphorylated with cold ATP. Lysates of Sf9 cells expressing p85 were pre-incubated with each of the phosphopeptides (10 μM). The lysates were then allowed to associate with immobilized recombinant HGF/SF receptors. Following association the complex was washed and receptor-bound p85 was detected by an in vitro kinase assay, as described in Materials and Methods of Example 4. The phosphopeptides are identified by the number of the amino terminal tyrosine.
# FIG. 2. Inhibition of binding of p85 to HGF/SF receptor with different concentrations of tyrosine-phosphorylated peptides. The phosphopeptides which efficiently out-competed p85 binding to the HGF/SF receptor (FIG. 1) were used at increasing concentrations (10 nM, 100 nM, 1 μM from left to right) to define their relative affinities for p85. Conditions of the experiment were as in FIG. 1. Phosphopeptide 1365 was used as a negative control for p85 interaction.
# In vitro association experiments. Sf9 cells expressing the recombinant HGF/SF receptor (approximately 4×10^6 cells/point) were lysed 36 hours after infection in buffer A (10 mM Tris-HCl buffer pH 7.5, 10% glycerol, 1% Triton X-100, 150 mM NaCl, 5 mM EDTA), supplemented with 0.2 mM phenyl-methylsulfonyl fluoride, 1 μg/ml leupeptin, 0.1 TIU/ml aprotinin and 1 μg/ml pepstatin. Lysates were clarified at 15,000×g at 4° C. for 15 minutes and the supernatants immunoprecipitated after 2 hours incubation with anti-Met antibodies coupled to Protein A-Sepharose. Immunocomplexes were washed three times with buffer A, once with buffer B (10 mM Tris-HCl pH 7.4, 100 mM NaCl, 1 mM EDTA) and once with buffer C (25 mM 4-(2-hydroxyethyl)-1-piperazine-ethanesulfonic acid (HEPES) buffer pH 7.2, 100 mM NaCl, 5 mM MgCl2). Samples were pre-phosphorylated by incubation for 15 minutes at 25° C. in buffer C with 10 μM unlabelled ATP and then washed three times with cold buffer A supplemented with 1 mM sodium ortho-vanadate. Association between the immobilized receptor and the baculovirus-expressed p85 was carried out as previously described (Bardelli, A., et al., Oncogene 7: 1973-1978 (1992)). For the association experiments with the PI 3-kinase holoenzyme three days serum-starved A549 cells (approx. 2×10^6 cells/point) were used as a source of PI 3-kinase. A549 cells were Dounce-homogenized in MOPS buffer (20 mM 3-(N-morpholino)propanesulfonic acid) (pH 7.5), 1 mM MgCl2, 0.1 mM EDTA, 200 mM sucrose, 1 mM sodium ortho-vanadate), supplemented with 0.2 mM phenylmethylsulfonyl fluoride, 1 μg/ml leupeptin, 0.1 TIU/ml aprotinin and 1 μg/ml pepstatin. Homogenates were centrifuged at 100,000×g for 20 minutes at 4° C. When checking for the ability of phosphopeptides to block the association with the receptor, cell lysates were pre-incubated with the phosphopeptides for 1 hour at 4° C. prior to incubation with the immobilized recombinant HGF/SF receptor. Following association, immunocomplexes were washed three times with buffer A, twice with buffer D (0.5M LiCl, 100 mM Tris-HCl pH 7.6), and twice with buffer B.
# The presence of the p85 subunit of the PI 3-kinase in the receptor immunoprecipitate was determined by: i) labelling of the receptor and associated proteins with [γ-^32 P]ATP by in vitro kinase assay; ii) Western immunoblotting; iii) PI 3-kinase activity assay.
# In vitro kinase assay. Receptor-associated proteins were labelled in 20 μl of buffer C, in the presence of 10 μCi [γ-^32 P]ATP (specific activity 7,000 Ci/Mm; Amersham) at 25° C. for 15 minutes. The reaction was stopped by adding 1 ml of ice-cold Buffer A without protease inhibitors. Samples were washed three times with cold buffer A. The labelled immunocomplexes were eluted from Protein A-Sepharose in boiling Laemmli buffer. […]
# [2] = system: N- and C-SH2 domains of p85; test: BIAcore inhibition of binding of GST-SH2 domains to immobilized PDGF receptor phosphopeptide Y751; design: species or system bovine; conditions: range of phosphopeptide concentrations; 25° C.; FIG. 7
# Protocol: FIG. 7. Evaluation of the relative affinities of phosphotyrosine 1313, 1349 and 1356 for the N- and C- SH2 domains of p85. Affinities were determined by biospecific interaction analysis with the BIAcore instrument (Jonsson, U., Fagerstam, L., Roos, H., Ronnberg, J., Sjolander, Stenber, E., Stahlberg, R. Urbaniczky, C., Ostlin, H., and Malmquist. 1991. Surface plasmon reasonance and microfluidics for real time biospecific interaction analysis. Biotechniques 11: 520-527; Jonsson, U. and M. Malmquist. 1992. Real time biospecific analysis. The integration of surface plasmon reasonance detection, general biospecific interface chemistry and microfluidics into one analytical system p. 291-336. In F. Turner (ed), Advances in Biosensors, vol. 2 JAI Press, London; Karlsson, R., Michaelsson, A., and L. Mattsson. 1991. Kinetic analysis of monoclonal antibody-antigen interactions with a new biosensor based analytical system. J. Immunol. Meth. 145: 229-246).
# Relative affinities were determined by measuring the ability of the phosphopeptides to inhibit the interaction of the SH2 domains with an immobilized phosphopeptide (DMSKDESVDY*VPMLDMK) (SEQ. ID NO: 26) which includes Y751 in the human PDGF receptor. Panel A and B show the results of these measurements, expressed as % inhibition of binding to phosphopeptide Y751.
# GST-SH2 domain fusion proteins. The N- and C-SH2 domains of the bovine PI 3-kinase p85 subunit (amino acids 314-431 and 612-722) were obtained by polymerase chain reaction and cloned into the pGEX-2 bacterial expression vector (Smith, D. B., and Johnson K. S., Gene 67: 31-40 (1988).
# Glutathione-S-transferase (GST)-SH2 fusion proteins were purified from bacterial lysates by glutathione affinity chromatography (Panayotou, G., et al. EMBO J., 11: 4261-4272 (1992)). Amino acid analysis on an Applied Biosystems 420A analyzer was used to determine the concentration of the recombinant proteins.
# Analysis of the interaction of Y1349 and Y1356 with the p85 N- and C- SH2 domains using the BIAcore. […]
# T1 sequence (P23727 whole entry): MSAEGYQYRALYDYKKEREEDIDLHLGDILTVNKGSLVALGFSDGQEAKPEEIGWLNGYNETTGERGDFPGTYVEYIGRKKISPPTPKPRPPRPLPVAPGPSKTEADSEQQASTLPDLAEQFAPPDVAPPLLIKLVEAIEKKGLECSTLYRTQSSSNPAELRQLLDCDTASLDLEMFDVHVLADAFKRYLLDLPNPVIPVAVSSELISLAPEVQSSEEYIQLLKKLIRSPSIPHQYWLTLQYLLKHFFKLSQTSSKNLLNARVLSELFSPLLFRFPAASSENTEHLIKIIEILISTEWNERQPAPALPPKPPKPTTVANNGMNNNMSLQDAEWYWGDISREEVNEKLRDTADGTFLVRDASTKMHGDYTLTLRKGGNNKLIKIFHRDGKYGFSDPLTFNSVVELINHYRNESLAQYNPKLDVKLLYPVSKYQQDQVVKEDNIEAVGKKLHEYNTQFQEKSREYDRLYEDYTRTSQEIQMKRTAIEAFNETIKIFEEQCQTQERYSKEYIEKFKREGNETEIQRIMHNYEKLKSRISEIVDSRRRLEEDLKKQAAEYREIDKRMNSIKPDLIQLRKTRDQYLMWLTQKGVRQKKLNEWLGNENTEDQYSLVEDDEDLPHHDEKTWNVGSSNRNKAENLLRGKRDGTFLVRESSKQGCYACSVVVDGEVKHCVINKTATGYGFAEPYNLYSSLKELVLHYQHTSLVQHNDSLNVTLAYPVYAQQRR
SMILES,Inhibition of binding of p85 to HGF/SF receptor [1],Apparent relative affinity: inhibition of binding of p85 N- and C-SH2 domains to phosphopeptide Y751 [2]
CC(C)[C@H](NC(=O)[C@H](CS)NC(=O)[C@H](CCCCN)NC(=O)[C@@H](NC(=O)[C@H](CC(N)=O)NC(=O)[C@@H](NC(=O)[C@@H](N)Cc1ccc(OP(=O)(O)O)cc1)C(C)C)C(C)C)C(=O)N[C@@H](C)C(=O)O [H-Tyr*-Val-Asn-Val-Lys-Cys-Val-Ala-OH] (HELM PEPTIDE1{[N[C@@H](Cc1ccc(OP(=O)(O)O)cc1)C(=O)[*:2]].V.N.V.K.C.V.A}$$$$V2.0),efficiently outcompeted p85,"inhibit binding of p85 N- and C-SH2 domains to phosphopeptide Y751, but at higher concentrations"
CC(C)[C@H](NC(=O)[C@H](Cc1c[nH]cn1)NC(=O)[C@@H](NC(=O)[C@@H](N)Cc1ccc(OP(=O)(O)O)cc1)C(C)C)C(=O)N[C@@H](CC(N)=O)C(=O)N[C@@H](C)C(=O)N[C@H](C(=O)N[C@@H](Cc1ccc(O)cc1)C(=O)O)[C@@H](C)O [H-Tyr*-Val-His-Val-Asn-Ala-Thr-Tyr-OH] (HELM PEPTIDE1{[N[C@@H](Cc1ccc(OP(=O)(O)O)cc1)C(=O)[*:2]].V.H.V.N.A.T.Y}$$$$V2.0),efficiently outcompeted p85,"inhibit binding of p85 N- and C-SH2 domains to phosphopeptide Y751, but at higher concentrations"
